The NIST ThermoML archive (doi:10.1021/je1012857)

Assay: xn = mol fraction of the nth substance listed
Conditions: 101 kPa, Liquid; for speed of sound: Sing-around technique in a fixed-path interferometer; for viscosity: Capillary tube (Ostwald / Ubbelohde) method

NCCN [ethane-1,2-diamine] + CC(C)CO
Conditions	mass density [kg/m3]	speed of sound [m/s]	viscosity [mPa·s]
293.15 K, x1 = 0.0664	809.959	1236.6	–
293.15 K, x1 = 0.0967	813.41	1250.3	–
293.15 K, x1 = 0.1652	821.052	1280.8	–
293.15 K, x1 = 0.2002	824.886	1296.8	–
293.15 K, x1 = 0.2617	831.17	1324.1	–
293.15 K, x1 = 0.3019	835.134	1342.3	–
293.15 K, x1 = 0.4093	844.755	1389.6	–
293.15 K, x1 = 0.5014	852.563	1431	–
293.15 K, x1 = 0.6011	861.131	1478	–
293.15 K, x1 = 0.6911	868.086	1520.5	–
293.15 K, x1 = 0.7887	876.941	1571.6	–
293.15 K, x1 = 0.8471	882.565	1603.7	–
293.15 K, x1 = 0.8998	887.801	1634.3	–
293.15 K, x1 = 0.9391	892.054	1658.5	–
298.15 K, x1 = 0.0664	806.006	1219.4	3.231
298.15 K, x1 = 0.0967	809.413	1233.1	3.209
298.15 K, x1 = 0.1652	816.964	1263.3	3.134
298.15 K, x1 = 0.2002	820.75	1279.2	3.094
298.15 K, x1 = 0.2617	826.969	1306.3	3.006
298.15 K, x1 = 0.3019	830.903	1324.5	2.94
298.15 K, x1 = 0.4093	840.455	1371.4	2.724
298.15 K, x1 = 0.5014	848.217	1412.2	2.495
298.15 K, x1 = 0.6011	856.736	1458.7	2.216
298.15 K, x1 = 0.6911	863.637	1500.6	1.958
298.15 K, x1 = 0.7887	872.42	1550.9	1.716
298.15 K, x1 = 0.8471	878.003	1582.6	1.591
298.15 K, x1 = 0.8998	883.197	1612.7	1.501
298.15 K, x1 = 0.9391	887.411	1636.5	1.456
303.15 K, x1 = 0.0664	802.02	1202.4	2.711
303.15 K, x1 = 0.0967	805.385	1216	2.699
303.15 K, x1 = 0.1652	812.854	1246.1	2.648
303.15 K, x1 = 0.2002	816.592	1261.8	2.625
303.15 K, x1 = 0.2617	822.547	1288.6	2.553
303.15 K, x1 = 0.3019	826.644	1306.7	2.502
303.15 K, x1 = 0.4093	836.134	1353.1	2.325
303.15 K, x1 = 0.5014	843.853	1393.5	2.135
303.15 K, x1 = 0.6011	852.325	1439.5	1.895
303.15 K, x1 = 0.6911	859.166	1480.6	1.698
303.15 K, x1 = 0.7887	867.883	1530.2	1.502
303.15 K, x1 = 0.8471	873.42	1561.5	1.404
303.15 K, x1 = 0.8998	878.575	1591.2	1.335
303.15 K, x1 = 0.9391	882.76	1614.6	1.294
308.15 K, x1 = 0.0664	797.994	1185.4	2.18
308.15 K, x1 = 0.0967	801.327	1198.8	2.169
308.15 K, x1 = 0.1652	808.708	1228.7	2.147
308.15 K, x1 = 0.2002	812.41	1244.4	2.135
308.15 K, x1 = 0.2617	818.501	1271.1	2.097
308.15 K, x1 = 0.3019	822.366	1288.9	2.059
308.15 K, x1 = 0.4093	831.795	1334.9	1.924
308.15 K, x1 = 0.5014	839.474	1374.9	1.776
308.15 K, x1 = 0.6011	847.896	1420.2	1.583
308.15 K, x1 = 0.6911	854.681	1460.9	1.446
308.15 K, x1 = 0.7887	863.336	1509.8	1.314
308.15 K, x1 = 0.8471	868.829	1540.7	1.248
308.15 K, x1 = 0.8998	873.941	1570.1	1.191
308.15 K, x1 = 0.9391	878.094	1593.1	1.154
313.15 K, x1 = 0.0664	793.931	1168.4	–
313.15 K, x1 = 0.0967	797.223	1181.6	–
313.15 K, x1 = 0.1652	804.528	1211.5	–
313.15 K, x1 = 0.2002	808.187	1227.1	–
313.15 K, x1 = 0.2617	814.225	1253.6	–
313.15 K, x1 = 0.3019	818.055	1271.2	–
313.15 K, x1 = 0.4093	827.425	1316.9	–
313.15 K, x1 = 0.5014	835.064	1356.4	–
313.15 K, x1 = 0.6011	843.444	1400.9	–
313.15 K, x1 = 0.6911	850.175	1441.2	–
313.15 K, x1 = 0.7887	858.761	1489.6	–
313.15 K, x1 = 0.8471	864.211	1520.1	–
313.15 K, x1 = 0.8998	869.284	1548.9	–
313.15 K, x1 = 0.9391	873.407	1571.7	–
